Test results from PubChem BioAssay (NCI).
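Interpolation was linear, between the two tested concentrations surrounding the appropriate level; five concentrations were tested over 48 hours in 96-well plates. GI50 is the concentration that inhibits growth by half. TGI denotes the concentration required for complete inhibition of growth.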

Legend:
Assay in all cases: inhibition of tumour cell growth, NCI panel, 48 h
HCC-2998 colon = test system: HCC-2998 colon
MOLT-4 leukemia = test system: MOLT-4 leukemia
A549 NSCLC = test system: A549 NSCLC
COLO 205 colon = test system: COLO 205 colon
CCRF-CEM leukemia = test system: CCRF-CEM leukemia
SK-MEL-2 melanoma = test system: SK-MEL-2 melanoma
SF-295 CNS = test system: SF-295 CNS
SK-MEL-5 melanoma = test system: SK-MEL-5 melanoma
UACC-257 melanoma = test system: UACC-257 melanoma
MALME-3M melanoma = test system: MALME-3M melanoma

| SMILES | GI50 (HCC-2998 colon) [µM] | TGI (HCC-2998 colon) [µM] | GI50 (MOLT-4 leukemia) [µM] | TGI (MOLT-4 leukemia) [µM] | GI50 (A549 NSCLC) [µM] | TGI (A549 NSCLC) [µM] | GI50 (COLO 205 colon) [µM] | TGI (COLO 205 colon) [µM] | GI50 (CCRF-CEM leukemia) [µM] | TGI (CCRF-CEM leukemia) [µM] | GI50 (SK-MEL-2 melanoma) [µM] | TGI (SK-MEL-2 melanoma) [µM] | GI50 (SF-295 CNS) [µM] | TGI (SF-295 CNS) [µM] | GI50 (SK-MEL-5 melanoma) [µM] | TGI (SK-MEL-5 melanoma) [µM] | GI50 (UACC-257 melanoma) [µM] | TGI (UACC-257 melanoma) [µM] | GI50 (MALME-3M melanoma) [µM] | TGI (MALME-3M melanoma) [µM] |
| --- | --- | --- | --- | --- | --- | --- | --- | --- | --- | --- | --- | --- | --- | --- | --- | --- | --- | --- | --- | --- |
| Cc1ccc(NS(=O)(=O)c2ccc(-c3cnc(C4CC4)o3)cc2)cc1 | 10.8 | 23.5 | 3.22 | 20.9 | 4.55 | 26.2 | 3.64 | 16.1 | 3.31 | 34.6 | 5.06 | 18.8 | 2.66 | 12.2 | 2.43 | 8.29 | 10.8 | 27.8 | 2.48 | 17.6 |
| COc1nc(OC)c2c(=O)oc(-c3ccccc3)cc2n1 |  | > 100 |  | > 100 |  | > 100 |  |  |  |  |  | > 100 |  | > 100 |  | > 100 |  | > 100 |  | > 100 |
| CS(=O)(=O)C1S(=O)(=O)OCCOS1(=O)=O |  | > 100 |  | > 100 |  | > 100 |  | > 100 |  |  |  |  |  | > 100 |  | > 100 |  | > 100 |  | > 100 |
| COc1ccc(-c2cc3c4c(nc5ccccc5c4c2)CC(c2cc(OC)c(OC)c(OC)c2)O3)cc1 (centres undefined) | 4.32 | > 100 | > 100 | > 100 |  |  |  |  | > 100 | > 100 | 3.44 | 14.9 | 3.5 | 12.5 | 2.67 | 8.27 | 3.93 | > 100 | 1.32 | 3.87 |
| CCCCN(CC)C(=O)C(=O)C1C(=O)Nc2ccccc2S1=O (centres undefined) |  | > 100 |  | > 100 |  | > 100 |  | > 100 |  | > 100 |  | > 100 |  |  |  | > 100 |  | > 100 |  | > 100 |
| OCC(O)CC[CH2][Sn]([c]1ccccc1)([c]1ccccc1)[c]1ccccc1 (centres undefined) | 18.2 | 34.5 |  |  | 10.7 | 22.6 | 19.5 | 35.3 | 13.7 | 41.6 | 15.3 | 29 | 11.3 | 23.3 | 15.3 | 29.1 | 18.4 | 35.8 |  |  |
| COC(=O)C(=O)C(C(=O)C(=O)Nc1ccccc1C(=O)OC)c1nc2ccc(C(=O)c3ccccc3)cc2[nH]c1=O (centres undefined) |  |  |  |  |  | > 100 |  |  |  |  |  | > 100 |  | > 100 |  | > 100 |  | > 100 |  | > 100 |
| CN(C)c1c(Cl)c(=O)oc2c1ccc1nc(-c3ccccc3)sc12 |  | > 100 |  | > 100 |  | > 100 |  | > 100 |  | > 100 |  |  |  | > 100 |  | > 100 |  | > 100 |  | > 100 |
| COc1cc2c(cc1OC)C13CCN4CC5=CCOC(CC(=O)O)C(C5CC41)C3N2 (centres undefined) |  |  |  | > 100 |  | > 100 |  | > 100 |  | > 100 |  | > 100 |  | > 100 |  | > 100 |  | > 100 |  | > 100 |
| COc1ccc2c(c1)Oc1nc(N)c(C#N)c(N)c1C2Sc1ccc(SC)cc1 (centres undefined) | 1.78 | 3.36 | 2.83 | 6.87 | 2 | 3.91 | 1.85 | 3.6 |  |  | 1.7 | 3.28 | 1.81 | 3.34 | 1.79 | 3.18 | 1.9 | 3.38 | 1.78 | 3.35 |
